Laboratory results: PubChem BioAssay AID1259411 (Chemical Carcinogenesis Research Information System (CCRIS), 2018)
Activity calls are given as the source filed them. The rule behind the calls is not given here.

System: rodent carcinogenicity bioassays, tumor incidence
Test: CCRIS carcinogenicity studies
Summary of the method: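 NCI-built, expert-reviewed records of carcinogenicity and related test outcomes (mutagenicity, tumor promotion/inhibition) compiled from published and report sources, historical span 1985-2011, not updated.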

For `O=C(O)CO`, the carcinogen call (Species: Mouse, Strain/Sex: SKH-1/Female (18/Group), Route: Dermal, Dose: 0, 4, 10% administered as topical cream (pH 3.5) , 5 d/wk, 40 wk, animals held an additional 12 wk for study duration of, Tumor Site: Type of Lesion: Skin: Carcinoma in situ, squamous cell carcinoma, basal cell carcinoma) was “inactive; negative. when synthetic solar light (ssl) at 0.3 and 0.6 the minimal erythema d” and the carcinogen call (Species: Mouse, Strain/Sex: SKH-1/Male (18/Group), Route: Dermal, Dose: 0, 4, 10% administered as topical cream (pH 3.5) , 5 d/wk, 40 wk, animals held an additional 12 wk for study duration of, Tumor Site: Type of Lesion: Skin: Carcinoma in situ, squamous cell carcinoma, basal cell carcinoma) was “inactive; negative. when synthetic solar light (ssl) at 0.3 and 0.6 the minimal erythema d”.
In the case of `[Ni]=[Se]`, the carcinogen call (Species: RAT, Strain/Sex: F344/MALE, Route: INTRAMUSCULAR, Tumor Site: Type of Lesion: INJECTION SITE: SARCOMA) is reported as “active; positive”.
In the case of `C=CCN=C=S`, the carcinogen call (Species: MOUSE, Strain/Sex: B6C3F1/FEMALE, Route: GAVAGE, Dose: 0, 12, 25 MG/KG IN CORN OIL FOR 103 WK (STUDY DURATION: 103 WK), Dose: 0, 12, 25 MG/KG IN CORN OIL FOR 103 WK (STUDY DURATION: 103 WK)) is reported as “inactive; negative”, the carcinogen call (Species: MOUSE, Strain/Sex: B6C3F1/MALE, Route: GAVAGE, Dose: 0, 12, 25 MG/KG IN CORN OIL FOR 103 WK (STUDY DURATION: 103 WK), Dose: 0, 12, 25 MG/KG IN CORN OIL FOR 103 WK (STUDY DURATION: 103 WK)) is reported as “inactive; negative” and the carcinogen call (Species: RAT, Strain/Sex: F344/FEMALE, Route: GAVAGE, Dose: 0, 12, 25 MG/KG IN CORN OIL FOR 103 WK (STUDY DURATION: 103 WK), Dose: 0, 12, 25 MG/KG IN CORN OIL FOR 103 WK (STUDY DURATION: 103 WK), Tumor Site: Type of Lesion: INTEGUMENTARY SYSTEM (SUBCUTANEOUS TISSUE): FIBROSARCOMA) is reported as “equivocal”. For the same compound, the carcinogen call (Species: RAT, Strain/Sex: F344/MALE, Route: GAVAGE, Dose: 0, 12, 25 MG/KG IN CORN OIL FOR 103 WK (STUDY DURATION: 103 WK), Dose: 0, 12, 25 MG/KG IN CORN OIL FOR 103 WK (STUDY DURATION: 103 WK), Tumor Site: Type of Lesion: URINARY BLADDER: TRANSITIONAL CELL PAPILLOMA) was “active; positive”.
In the case of `Cc1ccc(/C(=C\CN2CCCC2)c2ccccn2)cc1`, the carcinogen call (Species: MOUSE, Strain/Sex: B6C3F1/FEMALE, Route: ORAL, Dose: 0, 500, 2000, 4000 PPM IN DIET FOR 2 YR (STUDY DURATION: 2 YR), Dose: 0, 500, 2000, 4000 PPM IN DIET FOR 2 YR (STUDY DURATION: 2 YR)) is reported as “inactive; negative”, the carcinogen call (Species: MOUSE, Strain/Sex: B6C3F1/MALE, Route: ORAL, Dose: 0, 500, 2000, 4000 PPM IN DIET FOR 2 YR (STUDY DURATION: 2 YR), Dose: 0, 500, 2000, 4000 PPM IN DIET FOR 2 YR (STUDY DURATION: 2 YR)) is reported as “inactive; negative” and the carcinogen call (Species: RAT, Strain/Sex: F344/FEMALE, Route: ORAL, Dose: 0, 250, 1000, 2000 PPM IN DIET FOR 103 WK (STUDY DURATION: 104 WK), Dose: 0, 250, 1000, 2000 PPM IN DIET FOR 103 WK (STUDY DURATION: 104 WK)) is reported as “inactive; negative”. The carcinogen call (Species: RAT, Strain/Sex: F344/MALE, Route: ORAL, Dose: 0, 250, 1000, 2000 PPM IN DIET FOR 103 WK (STUDY DURATION: 104 WK), Dose: 0, 250, 1000, 2000 PPM IN DIET FOR 103 WK (STUDY DURATION: 104 WK)) was “inactive; negative”.
In the case of `CCCCC(=O)O[C@H]1CC[C@H]2[C@@H]3CCc4cc(O)ccc4[C@H]3CC[C@]12C`, the carcinogen call (Species: RAT, Strain/Sex: STRAIN-CD/MALE, Route: SUBCUTANEOUS, Dose: 0, 1 MG IN CASTOR OIL 1/4 WK FOR LIFE (STUDY DURATION: LIFE), Tumor Site: Type of Lesion: MAMMARY GLAND: TUMOR) is reported as “active; positive”.
For `c1cc(OCC2CO2)cc(OCC2CO2)c1` (centres undefined), the carcinogen call (Species: MOUSE, Strain/Sex: B6C3F1/FEMALE, Route: GAVAGE, Dose: 0, 50, 100 MG/KG BW IN CORN OIL 5 D/WK FOR 103 WK (STUDY DURATION: 105 WK), Dose: 0, 50, 100 MG/KG BW IN CORN OIL 5 D/WK FOR 103 WK (STUDY DURATION: 105 WK), Tumor Site: Type of Lesion: FORESTOMACH: SQUAMOUS CELL CARCINOMA, SQUAMOUS CELL PAPILLOMA) was “active; positive”, the carcinogen call (Species: MOUSE, Strain/Sex: B6C3F1/FEMALE, Route: GAVAGE, Dose: 0, 50, 100 MG/KG IN CORN OIL 5 D/WK FOR 103 WK (STUDY DURATION: 104-105 WK), Dose: 0, 50, 100 MG/KG IN CORN OIL 5 D/WK FOR 103 WK (STUDY DURATION: 104-105 WK), Tumor Site: Type of Lesion: FORESTOMACH: SQUAMOUS CELL PAPILLOMA, SQUAMOUS CELL CARCINOMA) was “active; positive” and the carcinogen call (Species: MOUSE, Strain/Sex: B6C3F1/MALE, Route: GAVAGE, Dose: 0, 50, 100 MG/KG BW IN CORN OIL 5 D/WK FOR 103 WK (STUDY DURATION: 105 WK), Dose: 0, 50, 100 MG/KG BW IN CORN OIL 5 D/WK FOR 103 WK (STUDY DURATION: 105 WK), Tumor Site: Type of Lesion: FORESTOMACH: SQUAMOUS CELL CARCINOMA, SQUAMOUS CELL PAPILLOMA) was “active; positive”. For the same compound, the carcinogen call (Species: MOUSE, Strain/Sex: B6C3F1/MALE, Route: GAVAGE, Dose: 0, 50, 100 MG/KG IN CORN OIL 5 D/WK FOR 103 WK (STUDY DURATION: 104-105 WK), Dose: 0, 50, 100 MG/KG IN CORN OIL 5 D/WK FOR 103 WK (STUDY DURATION: 104-105 WK), Tumor Site: Type of Lesion: FORESTOMACH: SQUAMOUS CELL PAPILLOMA, SQUAMOUS CELL CARCINOMA) was “active; positive”, the carcinogen call (Species: RAT, Strain/Sex: F344/FEMALE, Route: GAVAGE, Dose: 0, 12, 25, 50 MG/KG BW IN CORN OIL 5 D/WK FOR 103 WK (STUDY DURATION: 105 WK), Dose: 0, 12, 25, 50 MG/KG BW IN CORN OIL 5 D/WK FOR 103 WK (STUDY DURATION: 105 WK), Tumor Site: Type of Lesion: FORESTOMACH: SQUAMOUS CELL CARCINOMA, SQUAMOUS CELL PAPILLOMA) was “active; positive” and the carcinogen call (Species: RAT, Strain/Sex: F344/FEMALE, Route: GAVAGE, Dose: 0, 12, 25, 50 MG/KG IN CORN OIL 5 D/WK FOR 103 WK (STUDY DURATION: 104-105 WK), Dose: 0, 12, 25, 50 MG/KG IN CORN OIL 5 D/WK FOR 103 WK (STUDY DURATION: 104-105 WK), Tumor Site: Type of Lesion: FORESTOMACH: SQUAMOUS CELL PAPILLOMA, SQUAMOUS CELL CARCINOMA) was “active; positive”. The carcinogen call (Species: RAT, Strain/Sex: F344/MALE, Route: GAVAGE, Dose: 0, 12, 25, 50 MG/KG IN CORN OIL 5 D/WK FOR 103 WK (STUDY DURATION: 104-105 WK), Dose: 0, 12, 25, 50 MG/KG IN CORN OIL 5 D/WK FOR 103 WK (STUDY DURATION: 104-105 WK), Tumor Site: Type of Lesion: FORESTOMACH: SQUAMOUS CELL PAPILLOMA, SQUAMOUS CELL CARCINOMA) was “active; positive” and the carcinogen call (Species: RAT, Strain/Sex: F344/MALE, Route: GAVAGE, Dose: 0, 12, 25, 50 MG/KG IN CORN OIL 5 D/WK FOR 103 WK (STUDY DURATION: 105 WK), Dose: 0, 12, 25, 50 MG/KG IN CORN OIL 5 D/WK FOR 103 WK (STUDY DURATION: 105 WK), Tumor Site: Type of Lesion: FORESTOMACH: SQUAMOUS CELL CARCINOMA, SQUAMOUS CELL PAPILLOMA) was “active; positive”.
In the case of `COC(=O)c1c(Cl)c(Cl)c(C(=O)OC)c(Cl)c1Cl`, the carcinogen call (Species: Mouse, Strain/Sex: CD-1/Female (60/group), Route: Oral, Dose: 0, 100, 1,000, 3,500, 7,500 ppm in diet for 2 yr, Dose: 0, 100, 1,000, 3,500, 7,500 ppm in diet for 2 yr, Tumor Site: Type of Lesion: Liver: Hepatocellular tumors (Significant only at highest dose)) is reported as “active; positive (study details not given in source; purity 96.7%)”, the carcinogen call (Species: Mouse, Strain/Sex: CD-1/Male (60/group), Route: Oral, Dose: 0, 100, 1,000, 3,500, 7,500 ppm in diet for 2 yr, Dose: 0, 100, 1,000, 3,500, 7,500 ppm in diet for 2 yr) is reported as “inactive; negative (study details not given in source; purity 96.7%)” and the carcinogen call (Species: Rat, Strain/Sex: Sprague-Dawley/Female (60/group), Route: Oral, Dose: 0, 1, 10, 50, 500, 1,000 mg/kg/day in diet for 2 yr, Dose: 0, 1, 10, 50, 500, 1,000 mg/kg/day in diet for 2 yr, Tumor Site: Type of Lesion: Thyroid: Follicular cell adenomas. Liver: Hepatocellular tumors) is reported as “active; positive (as evaluated by ca dpr; study details not given in source; purity 97.7”. The carcinogen call (Species: Rat, Strain/Sex: Sprague-Dawley/Male (60/group), Route: Oral, Dose: 0, 1, 10, 50, 500, 1,000 mg/kg/day in diet for 2 yr, Dose: 0, 1, 10, 50, 500, 1,000 mg/kg/day in diet for 2 yr, Tumor Site: Type of Lesion: Thyroid: Follicular cell adenomas) was “active; positive (evaluated as adverse effect by ca dpr; study details not given in sour”.
